Each structure is given as a SMILES string.

The experiment relates to differentiated human keratinocytes. Description: in vitro screening of desquamating activity: release of corneocytes (cellular detachment index) counted by flow cytometry. Format: cell-based. As to conditions: compounds at 5·10^−5 M, 60 minutes after addition. The protocol:
This test of in vitro screening of an agent which is active with regard to desquamation was carried out on differentiated human keratinocytes. The principle of the test is based on the fact that desquamation induces the release of corneocytes. The desquamating power of the test product increases as the number of corneocytes released increases.
The protocol of the test was as follows: beginning with biopsies of human skin, the keratinocytes obtained by separation from the epidermis were dissociated by enzymatic action with trypsin and were cultured at a concentration of 2·10^5 cell/ml. The growth and differentiation of the keratinocytes was obtained by culturing for 10 to 20 days in a specific medium. The activity of the test product was then evaluated after removal of the culture medium. To accomplish this, two samples were taken at T0 and T60, namely, before the addition of the test product and 60 minutes after this addition. The samples thus taken were analyzed with a flow cytometer in order to count the population of corneocytes. The flow cytometer made it possible to distinguish the populations of corneocytes and of keratinocytes by treatment with acridine orange, which is specific for cellular DNA.
The cellular detachment index was determined by the difference between T60 and T0. The same measurement was carried out for a control not comprising test product, because the experiment inevitably produces the release of corneocytes, even in the absence of active principles.
The test was carried out with compounds at a concentration of 5·10^−5M.

For the compound `COCCOCOCC(COC(=O)/C=C/CCCCCCCO)OC(=O)/C=C/CCCCCCCO` (stereo not drawn) [3-[(2-methoxyethoxy)methoxy]propyl 1,2-di(10-hydroxydec-2-enoate)], the “% of activity with respect to the control composed of an identical culture in the absence of compound (cellular detachment index, T60 minus T0)” value turned out to be 124.16%.

For `O=C(/C=C/CCCCCCCO)OCC(COC(=O)/C=C/CCCCCCCO)OC(=O)/C=C/CCCCCCCO` [Propyl 1,2,3-tri(10-hydroxydec-2-enoate), propyl 1,2,3-tri(10-hydroxydec-2-enoate)], the “% of activity with respect to the control composed of an identical culture in the absence of compound (cellular detachment index, T60 minus T0)” value is 148.52%.

On to `CCCCCCCC(=O)c1ccc(O)c(C(=O)O)c1` [Reference, 2-Hydroxy-5-octanoylbenzoic acid, reference compound], for which the “% of activity with respect to the control composed of an identical culture in the absence of compound (cellular detachment index, T60 minus T0)” value was found to be 91.95%.
